Data: patent US10471073B2, “Methods of reducing mammographic breast density and/or breast cancer risk” (Havah Therapeutics Pty Ltd., priority 2016, dated 2019)

What was measured:
[1] = system: prostate specific antigen (PSA); assay: IHC of high MBD breast tissue explants with columnar cell change: PSA; type: cell-based, human; conditions: for PSA, percentage of cell staining: 24 hours, E 5 nM, T 10 nM, G 100 nM, A 25 ng/L [sic]; for effect on PSA levels: tissue samples of both patients
Method: (§1) The samples are transported on ice for Prostate-specific antigen (PSA) determination. […] PSA is detectable in greater than 90% of the nipple fluid aspirations of normal women. […] This area was removed and transported on ice to the laboratory for explant culture. […] A representative piece of each tissue sample was immediately fixed in 4% formalin in phosphate-buffered saline (PBS) overnight at 4° C., followed by dehydration using an automatic tissue processor (Sakura Tissue-Tek VIP, USA) and paraffin wax embedding. A haematoxylin and eosin (H&E) stained section was used to assess tissue pathology. Additional consecutive sections were subjected to antigen retrieval to assess androgen receptor levels by immunohistochemistry (IHC). The remaining fresh tissue was cut into small (˜3×3×1 mm) pieces, and placed as triplicates on 1 cm^3 gelatin sponges (Spongostan; Johnson & Johnson, Skipton, UK) that were pre-soaked and then half submerged in treatment media containing 10% by volume dextran-coated charcoal stripped fetal calf serum (DCC-FCS) (SAFC biosciences, Kansas, USA) in 24-well tissue culture plates (BD Biosciences, NJ, USA). The tissues samples of both patients were cultured for 24 hours in a vehicle of 0.1% by volume of ethanol and subjected to the treatments set forth in Table 17.
(§2) Following 24 hours culturing in a 5% by volume CO2 enriched atmosphere at 37° C., the treated tissues samples were processed for IHC analyses as indicated below. Established IHC protocols were used to determine hormone receptor androgen receptor status in the 4 tissue samples prior to culture. Following microwave antigen retrieval in […] (pH6.5) tissue sections were incubated at 4° C. overnight with primary antibody for androgen receptor, estrogen receptor and PSA. Negative controls were generated by replacement of the primary antibodies with PBS. Tissues were dehydrated in ethanol and xylene and mounted with DPX (VWR International Ltd, England, UK). Following staining, digital images of stained sections were generated with a NanoZoomer scanner (Hamamatsu, Japan) to enable analyses of % positivity in untreated tissues, using Visual Image Analysis software (Video Pro, South Australia). A pathologist undertook histological evaluation with 25 years experience in breast pathology.

person with macromastia = assay: Macromastia: breast volume by water displacement; type: in vivo, human; conditions: tamoxifen and oral contraceptive therapy before the pellet
Method: The treatment consisted of testosterone 100 mg and anastrazole 3 mg compounded into a 4.5 mm pellet. The pellet was inserted into the subcutaneous fat of the lower abdominal wall.
Prior to treatment (Pre-treatment) the right and left breasts were separately placed in a calibrated bucket and the volume of displacement for each breast was measured. This was accomplished by submerging each breast until the breast was fully submerged but the water was not touching the chest wall. After one month of treatment the volume measurements were repeated using the same water displacement methodology. Fluid displacements were measured in mls.

pre-menopausal person = conditions: prior art; cited from earlier work
androgen receptor (AR) = assay: IHC of high MBD breast tissue explants with columnar cell change: androgen receptor; type: cell-based, human; conditions: for AR, percentage of cell staining: 24 hours, E 5 nM, T 10 nM, G 100 nM, A 25 ng/L [sic]; for effect on AR levels: tissue samples of both patients
Method: as §1, §2

estrogen receptor (ER) = assay: IHC of high MBD breast tissue explants with columnar cell change: estrogen receptor; type: cell-based, human; conditions: 24 hours, E 5 nM, T 10 nM, G 100 nM, A 25 ng/L [sic]
Method: as §1, §2

[2] = cited from earlier work

In the case of CC(C)(C#N)c1cc(Cn2cncn2)cc(C(C)(C)C#N)c1 [Anastrozole, 2,2′-[5-(1H-1,2,4-triazol-1-ylmethyl)-1,3-phenylene]bis(2-methylpropanenitrile)], the “PSA, percentage of cell staining” value ([1]; Patient 1 explant, vehicle 20%) was 35%, the “PSA, percentage of cell staining” value ([1]; Patient 2 explant, vehicle […]%) was 25% and the “effect on PSA levels” value [1] was “mild stimulatory effect”.

In the case of CC/C(=C(\c1ccccc1)c1ccc(OCCN(C)C)cc1)c1ccccc1 [tamoxifen], the “breast growth in macromastia” value (person with macromastia) is listed as “failed to cease the breast growth” and the mammographic breast density (pre-menopausal person) is listed as “reduce”.

For C[C@]12CC[C@@H]3c4ccc(O)cc4CC[C@H]3[C@@H]1CC[C@@H]2O [Estradiol, estradiol], the “AR, percentage of cell staining” value (androgen receptor (AR); Patient 1 explant, vehicle […]%) was 5%, the “AR, percentage of cell staining” value (androgen receptor (AR); Patient 2 explant, vehicle 10%) was <5% and the “ER, percentage of cell staining” value (estrogen receptor (ER); Patient 1 explant, vehicle 90%) was >95%. The “ER, percentage of cell staining” value (estrogen receptor (ER); Patient 2 explant, vehicle 75%) was >95%, the “PSA, percentage of cell staining” value ([1]; Patient 1 explant, vehicle 20%) was 5% and the “PSA, percentage of cell staining” value ([1]; Patient 2 explant, vehicle […]%) was <5%.

In the case of C[C@](O)(COc1ccc(C#N)cc1)C(=O)Nc1ccc(C#N)c(C(F)(F)F)c1 [GTx-024, (2S)-3-(4-cyanophenoxy)-N-[4-cyano-3-(trifluoromethyl)phenyl]-2-hydroxy-2-methylpropanamide], the “AR, percentage of cell staining” value (androgen receptor (AR); Patient 1 explant, vehicle […]%) was 45%, the “AR, percentage of cell staining” value (androgen receptor (AR); Patient 2 explant, vehicle 10%) was 55% and the “effect on AR levels” value (androgen receptor (AR)) was “increased”. For the same molecule, the “ER, percentage of cell staining” value (estrogen receptor (ER); Patient 1 explant, vehicle 90%) was 45%, the “ER, percentage of cell staining” value (estrogen receptor (ER); Patient 2 explant, vehicle 75%) was 25% and the “PSA, percentage of cell staining” value ([1]; Patient 1 explant, vehicle 20%) was 50%. For the same molecule, the “PSA, percentage of cell staining” value ([1]; Patient 2 explant, vehicle […]%) was 55% and the “effect on PSA levels” value [1] was “increased”.

With C[C@]12CC[C@H]3[C@@H](CCC4=CC(=O)CC[C@@]43C)[C@@H]1CC[C@@H]2O [Testosterone, testosterone] the “AR, percentage of cell staining” value (androgen receptor (AR); Patient 1 explant, vehicle […]%) was 35%, the “AR, percentage of cell staining” value (androgen receptor (AR); Patient 2 explant, vehicle 10%) was 25% and the “effect on AR levels” value (androgen receptor (AR)) was “increased”. The “fraction broken down in the liver as it is absorbed from the gut” value ([2]; oral delivery) was 80-90%, the “fraction broken down in the intestines by aromatase and other metabolic pathways” value ([2]; oral) was “approximately 85%” and the “ER, percentage of cell staining” value (estrogen receptor (ER); Patient 1 explant, vehicle 90%) was 50%. The “ER, percentage of cell staining” value (estrogen receptor (ER); Patient 2 explant, vehicle 75%) was 45%, the “PSA, percentage of cell staining” value ([1]; Patient 1 explant, vehicle 20%) was 65% and the “PSA, percentage of cell staining” value ([1]; Patient 2 explant, vehicle […]%) was 45%. The “effect on PSA levels” value [1] was “increased”.
